The text below walks through data of ChEMBL document CHEMBL6083220, “Chemically induced degradation of PRC2 complex by EZH2-Targeted PROTACs via a Ubiquitin-Proteasome pathway” (Bioorg Med Chem Lett, 2024).

The nature of test [1]: Antiproliferative activity against human MINO cells by MTT assay. Format: functional, cell-based.
Another test relates to OCI-Ly7. As to the kind of experiment: Antiproliferative activity against human OCILY7 cells by MTT assay. Format: functional, cell-based.

For the compound `CCN(c1cc(-c2ccc(CN3CCN(C(=O)CCN4CC(CNc5cccc6c5C(=O)N(C5CCC(=O)NC5=O)C6=O)C4)CC3)cc2)cc(C(=O)NCc2c(C)cc(C)[nH]c2=O)c1C)C1CCOCC1` (stereo not given), the IC50 in test [1] amounted to 510 nM; in the test with OCI-Ly7 it was 170 nM.

In the case of `CCN(c1cc(-c2ccc(CN3CCN(C(=O)CN4CC(CNc5cccc6c5C(=O)N(C5CCC(=O)NC5=O)C6=O)C4)CC3)cc2)cc(C(=O)NCc2c(C)cc(C)[nH]c2=O)c1C)C1CCOCC1` (stereo not given), the IC50 in test [1] came out at 950 nM; in the test with OCI-Ly7, 1970 nM.

In the case of `CCN(c1cc(-c2ccc(CN3CCN(C(=O)CN4CCC(CNc5cccc6c5C(=O)N(C5CCC(=O)NC5=O)C6=O)C4)CC3)cc2)cc(C(=O)NCc2c(C)cc(C)[nH]c2=O)c1C)C1CCOCC1` (stereo not given), the IC50 in test [1] is 3210 nM; in the test on OCI-Ly7, 2130 nM.

As for `CCN(c1cc(-c2ccc(CN3CCN(C(=O)CN4CCC(Nc5cccc6c5C(=O)N(C5CCC(=O)NC5=O)C6=O)CC4)CC3)cc2)cc(C(=O)NCc2c(C)cc(C)[nH]c2=O)c1C)C1CCOCC1` (stereo not given), the IC50 came out at 530 nM in test [1] and 22 nM in the test on OCI-Ly7.

Regarding `CCN(c1cc(-c2ccc(CN3CCN(C(=O)C4CCN(C5CN(c6cccc7c6C(=O)N(C6CCC(=O)NC6=O)C7=O)C5)CC4)CC3)cc2)cc(C(=O)NCc2c(C)cc(C)[nH]c2=O)c1C)C1CCOCC1` (stereo not given), the figures for the IC50 (in test [1]; with OCI-Ly7) were 2470 nM and 10400 nM, respectively.

`CCN(c1cc(-c2ccc(CN3CCN(C(=O)/C=C/C4CCC(CNc5cccc6c5C(=O)N(C5CCC(=O)NC5=O)C6=O)CC4)CC3)cc2)cc(C(=O)NCc2c(C)cc(C)[nH]c2=O)c1C)C1CCOCC1` (stereo not given): the 50% inhibitory concentration (IC50) in test [1] was determined as 24 nM; in the test with OCI-Ly7, 40 nM.

Turning to `CCN(c1cc(-c2ccc(CN3CCN(C(=O)C4CCC(CNc5cccc6c5C(=O)N(C5CCC(=O)NC5=O)C6=O)CC4)CC3)cc2)cc(C(=O)NCc2c(C)cc(C)[nH]c2=O)c1C)C1CCOCC1` (stereo not given), the IC50 in test [1] turned out to be 34 nM; in the test with OCI-Ly7 it was 18 nM.

As to `CCN(c1cc(-c2ccc(CN3CCN(CCC4CCC(CNc5cccc6c5C(=O)N(C5CCC(=O)NC5=O)C6=O)CC4)CC3)cc2)cc(C(=O)NCc2c(C)cc(C)[nH]c2=O)c1C)C1CCOCC1` (stereo not given), the concentration for half-maximal inhibition (IC50) in test [1] stood at 40 nM; with OCI-Ly7, 13 nM.

`CCN(c1cc(-c2ccc(CN3CCN(C(=O)C=C4CCC(CNc5cccc6c5C(=O)N(C5CCC(=O)NC5=O)C6=O)CC4)CC3)cc2)cc(C(=O)NCc2c(C)cc(C)[nH]c2=O)c1C)C1CCOCC1` (stereo not given): the results for the IC50 (in test [1]; in the test on OCI-Ly7) were 690 nM and 190 nM, respectively.

On to `CCN(c1cc(-c2ccc(CN3CCN(C(=O)Cc4ccc(CNc5cccc6c5C(=O)N(C5CCC(=O)NC5=O)C6=O)cc4)CC3)cc2)cc(C(=O)NCc2c(C)cc(C)[nH]c2=O)c1C)C1CCOCC1` (stereo not given), for which the IC50 in test [1] was 1030 nM; with OCI-Ly7, 870 nM.

With `CCN(c1cc(-c2ccc(CN3CCN(C(=O)CCC4CCC(CNc5cccc6c5C(=O)N(C5CCC(=O)NC5=O)C6=O)CC4)CC3)cc2)cc(C(=O)NCc2c(C)cc(C)[nH]c2=O)c1C)C1CCOCC1` (stereo not given), the results for the IC50 (in test [1]; in the test on OCI-Ly7) were 39 nM and 37 nM, respectively.

In the case of `CCN(c1cc(-c2ccc(CN3CCN(C(=O)CN4CCCC(CNc5cccc6c5C(=O)N(C5CCC(=O)NC5=O)C6=O)C4)CC3)cc2)cc(C(=O)NCc2c(C)cc(C)[nH]c2=O)c1C)C1CCOCC1` (stereo not given), the IC50 came to 450 nM in test [1] and 220 nM in the test on OCI-Ly7.

Regarding `CCN(c1cc(-c2ccc(CN3CCN(CC=C4CCC(CNc5cccc6c5C(=O)N(C5CCC(=O)NC5=O)C6=O)CC4)CC3)cc2)cc(C(=O)NCc2c(C)cc(C)[nH]c2=O)c1C)C1CCOCC1` (stereo not given), the IC50 in test [1] is 250 nM; in the test on OCI-Ly7, 4 nM.

Regarding `CCN(c1cc(-c2ccc(CN3CCN(CCCN4CC(CNc5cccc6c5C(=O)N(C5CCC(=O)NC5=O)C6=O)C4)CC3)cc2)cc(C(=O)NCc2c(C)cc(C)[nH]c2=O)c1C)C1CCOCC1` (stereo not given), the IC50 in test [1] was 69 nM; with OCI-Ly7, 22 nM.

Turning to `CCN(c1cc(-c2ccc(CN3CCN(C(=O)CN4CCC(Nc5cccc6c5C(=O)N(C5CCC(=O)NC5=O)C6=O)C4)CC3)cc2)cc(C(=O)NCc2c(C)cc(C)[nH]c2=O)c1C)C1CCOCC1` (stereo not given), the concentration for half-maximal inhibition (IC50) in test [1] came to 660 nM; in the test on OCI-Ly7, 150 nM.
